Molecular target: EGFR (Homo sapiens, UniProt P00533)
Test: Cellular EGFR assay (cell EGFR)
Type: cell-based
Design: expressed in transfected cells; host or cells: NIH 3T3/C7
Settings: 50% inhibition of target PTK activity
Method: EGF Receptor kinase activity in cells genetically engineered to express human EGF-R can be measured as described below:
1. NIH 3T3/C7 cell line (Honegger, et al., Cell 51:199-209, 1987) can be use for this assay.
1. Check seeded cells for contamination using an inverted microscope. Dilute test compounds stock (10 mg/ml in DMSO) 1:10 in DMEM medium, then transfer 5 μl to a test well for a test compounds drug dilution of 1:200 and a final DMSO concentration of 1%. Control wells receive DMSO alone. Incubate in 5% CO2 at 37° C. for one hour.
2. Prepare EGF ligand: dilute stock EGF in DMEM so that upon transfer of 10 μl dilute EGF (1:12 dilution), 25 nM final concentration is attained.
3. Prepare fresh 10 ml HNTG* sufficient for 100 μl per well wherein HNTG* comprises: HNTG stock (2.0 ml), milli-Q H2O (7.3 ml), EDTA, 100 mM, pH 7.0 (0.5 ml), Na3VO4 0.5 M (0.1 ml) and Na4(P2O7), 0.2 M (0.1 ml).
5. After two hours incubation with drug, add prepared EGF ligand to cells, 10 μl per well, to yield a final concentration of 25 nM. Control wells receive DMEM alone. Incubate, shaking, at room temperature, for 5 minutes.
6. Remove test compound, EGF, and DMEM. Wash cells twice with PBS. Transfer HNTG* to cells, 100 μl per well. Place on ice for 5 minutes. Meanwhile, remove blocking buffer from other ELISA plate and wash with TBST as described above.
7. With a pipette tip securely fitted to a micropipettor, scrape cells from plate and homogenize cell material by repeatedly aspirating and dispensing the HNTG* lysis buffer. Transfer lysate to a coated, blocked, and washed ELISA plate. Incubate shaking at room temperature for one hour.
8. Remove lysate and wash 4 times with TBST. Transfer freshly diluted anti-Ptyr antibody to ELISA plate at 100 μl per well. […]
12. The maximal phosphotyrosine signal is determined by subtracting the value of the negative controls from the positive controls. The percent inhibition of phosphotyrosine content for extract-containing wells is then calculated, after subtraction of the negative controls.

Chain of EGFR (P00533 25-1210): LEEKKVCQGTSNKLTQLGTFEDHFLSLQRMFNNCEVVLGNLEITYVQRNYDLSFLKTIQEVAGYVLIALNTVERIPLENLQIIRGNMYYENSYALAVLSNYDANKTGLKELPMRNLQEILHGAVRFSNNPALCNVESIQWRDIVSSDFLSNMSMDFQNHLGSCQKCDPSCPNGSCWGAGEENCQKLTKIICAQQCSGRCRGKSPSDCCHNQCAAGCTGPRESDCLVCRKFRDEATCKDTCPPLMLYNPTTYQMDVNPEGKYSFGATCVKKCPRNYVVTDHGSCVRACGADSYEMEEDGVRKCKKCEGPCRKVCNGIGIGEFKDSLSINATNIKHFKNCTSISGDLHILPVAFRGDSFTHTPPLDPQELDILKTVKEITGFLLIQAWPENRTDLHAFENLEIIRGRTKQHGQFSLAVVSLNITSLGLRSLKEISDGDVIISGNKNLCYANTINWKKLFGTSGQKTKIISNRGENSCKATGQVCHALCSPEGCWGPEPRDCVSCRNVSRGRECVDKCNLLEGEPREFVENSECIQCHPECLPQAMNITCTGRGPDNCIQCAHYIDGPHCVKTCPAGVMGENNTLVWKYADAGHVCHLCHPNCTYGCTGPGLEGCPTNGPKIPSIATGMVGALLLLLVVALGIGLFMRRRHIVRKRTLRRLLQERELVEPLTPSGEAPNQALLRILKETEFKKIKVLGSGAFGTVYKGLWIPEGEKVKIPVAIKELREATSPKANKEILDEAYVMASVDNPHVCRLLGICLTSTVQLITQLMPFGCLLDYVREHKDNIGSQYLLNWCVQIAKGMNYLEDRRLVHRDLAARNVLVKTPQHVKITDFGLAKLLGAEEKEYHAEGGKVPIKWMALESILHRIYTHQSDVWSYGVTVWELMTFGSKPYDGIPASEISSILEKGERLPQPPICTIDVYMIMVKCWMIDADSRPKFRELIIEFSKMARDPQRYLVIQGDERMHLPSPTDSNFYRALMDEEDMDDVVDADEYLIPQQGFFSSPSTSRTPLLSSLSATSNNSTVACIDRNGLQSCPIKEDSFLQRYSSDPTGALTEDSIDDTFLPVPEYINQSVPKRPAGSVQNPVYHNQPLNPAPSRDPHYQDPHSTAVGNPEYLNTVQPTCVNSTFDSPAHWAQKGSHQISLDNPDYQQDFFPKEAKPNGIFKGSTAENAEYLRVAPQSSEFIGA

COc1ccc2c(c1)C(CC(=O)O)C/C2=C1/C(=O)Nc2ccccc21 (stereo not drawn) [Compound 11, [6-Methoxy-3-(2-oxo-1,2-dihydroindol-3-ylidene)-indan-1-yl]acetic Acid]
IC50: > 100 µM

COc1ccc2c(c1)C(CC(=O)[O-])CC2=C1C(=O)Nc2ccccc21.[Na+] (stereo not drawn) [Compound 13, [6-Methoxy-3-(2-oxo-1,2-dihydroindol-3-ylidene)-indan-1-yl]acetic Acid Sodium Salt]
IC50: > 100 µM

O=C1Nc2ccccc2/C1=C1\CCc2ccccc21 [Compound 10, 3-Indan-1-ylidene-1,3-dihydroindol-2-one]
IC50: > 100 µM
